Values quoted from earlier work, collected in patent US20220184026A1, “COMPOSITIONS OF FULVIC ACID AND CANNABINOID AND USES THEREOF” (Omni Bioceutical Innovations, Inc., priority 2019, published 2022).
Where two headings read alike, the source gives them in different places.

System: chronic wounds
Design: key: N.S. = not statistically significant

In the case of basic fibroblast growth factor [bFGF], the Results (Richard et al., diabetic wounds (n=17), 0.25 to 0.75 μg/cm^2 daily) is listed as “N.S” and the Results (Robson et al., pressure wounds (n=50), 1, 5, and 10 μg/cm^2) is listed as “N.S”.

For “epidermal growth factor (NSDSECPLSHDGYCLHDGVCMYIEALDKYACNCVVGYIGERCQYRDLKWWELR; not fully specified; Epidermal growth factor; UniProt P01133 971-1023, looked up) [EGF]”, the Results (Falanga et al., venous wounds (n=44), 10 μg/mL twice per day) is listed as “N.S”.

For “granulocyte-macrophage colony-stimulating factor [GM-CSF]”, the Results (da Costa et al., venous + arterial wounds (n=25), 400 μg injected once around the wound) is given as “N.S”.

For human growth hormone [HGH], the Results (Rasmussen et al., venous wounds (n=37), 1 IU/cm^2 per week) is given as “N.S”.

For interleukin-1B [IL-1B], the Results (Robson et al., pressure wounds (n=25), 0.01, 0.1, and 1 μg/cm^2 daily) is given as “N.S”.
